In patent US11371040B2, “Endonuclease-barcoding” (priority 2015, dated 2022):

How the values were obtained:
[1] = tested on: HCT-116 cells; assay: TP53 CRISPR-barcoding (TP53-STOP vs TP53-WT barcode, qPCR) in HCT-116 cells; format: cell-based; details: relative to TP53-WT control barcode
Protocol: (§1) 293T (human embryonic kidney), DLD-1, HCT-116 (colorectal carcinoma), MCF-7 (breast cancer) were obtained from ATCC, PC9 cells (NSCLC) were obtained from ECACC-Sigma-Aldrich, Kelly cells (neuroblastoma) were a kind gift from Dr. C. Einvik. All cells were grown in Dulbecco's modified Eagle's Medium (Life technologies) except Kelly and PC-9 cells, grown in Roswell Park Memorial Institute medium (Life technologies), both supplemented with 10% fetal bovine serum (FBS, Life Technologies) and 0.6% penicillin/streptomycin (Life technologies). Cells were transfected with a Nucleofector II device (Lonza) using the Amaxa Nucleofector kit (Lonza) and electroporation program recommended by the manufacturer. 293T cells were transfected using polyethylenimine (Polysciences). The efficiency of each transfection was assessed in parallel using a GFP-containing plasmid. […]
(§2) gDNA was extracted using the NucleoSpin Tissue kit (Macherey-Nagel). […] Primer specificity for each particular barcode was assessed. qPCR was performed from 100 ng of gDNA using SYBR Green (Life Technologies) on a 7900 HT Fast-Real-Time, a Q-PCR ABI PRISM 7500 or a QuantStudio Flex PCR System (Life Technologies). qPCR analysis was performed using the standard curve or the Pfaffl methods (Pfaffl, 2001).

[2] = tested on: MCF7 cells; assay: TP53 CRISPR-barcoding (TP53-STOP vs TP53-WT barcode, qPCR) in MCF7 cells; format: cell-based; details: relative to TP53-WT control barcode
Protocol: as §1, §2

[3] = tested on: PC9 cells; assay: EML4-ALK inversion barcoding in PC9 cells; format: cell-based
[4] = tested on: PC9 cells; assay: Mouse xenografts of multiplex CRISPR-barcoded PC9 cells; format: in vivo, SCID mice
Protocol: PC9 cells containing the EGFR-T790, KRAS-G12 and EML4-ALK barcodes were resuspended in PBS and subcutaneously inoculated in the left and right flank (2×10^6 cells per site) of male SCID mice (NCI). The size of the tumors was measured by caliper every 3-4 days. […] When the size of at least one of the tumors reached the arbitrary volume of 550 mm^3, the mice were sacrificed and gDNA was extracted from the tumors for qPCR analysis.
When at least one of the two tumors exceeded the arbitrary volume of 550 mm^3, the mice were sacrificed and gDNA was derived from the tumors. The frequency of the three different mutations in the tumor samples was measured by qPCR and normalized to the levels observed in the same batch of cells prior to injection in the mice.

[5] = tested on: PC9 cells; assay: KRAS-G12 CRISPR-barcoding in PC9 cells; format: cell-based; details: PC9 cells treated in the presence or absence of inhibitor
Source text: CRISPR Barcoding sgRNA target sequences (See Sequence Listing—SEQ ID No 1-14) were designed using the CRISPR Design tool hosted by the Massachusetts Institute of Technology (see the website located at crispr.mit,edu) to minimize potential off-target effects. Oligos encoding the targeting sequence were then annealed and ligated into the pSpCas9(BB)-2A-Puro (Ran et al., 2013) vector digested with Bbsl (New England Biolabs). The sequence of the ssODNs (Integrated DNA Technologies) used for CRISPR/Cas9-mediated HDR, containing one missense/nonsense mutation coupled with different silent mutations, are provided in the sequence listing (SEQ ID No 15-29). The set of silent mutations is designed to enable PCR specificity and to avoid recognition by the corresponding sgRNA used to cleave the endogenous sequence. For each targeted locus, cells were co-transfected with 2 μg of the CRISPR/Cas9 plasmid and […] of either the control or the sense/nonsense ssODN (50 μM). […]
as §2, with “2001). […]” for “2001).”

| Structure (SMILES) | fraction of cells containing the TP53-STOP barcode [1] | fraction of cells containing the TP53-STOP barcode [2] | enrichment of EML4-ALK containing PC9 cells [3] | growth of the tumors ([4]; 25 mg/kg/day by gavage, from day 16 after injection) | proportion of all three mutations (EGFR-T790M, KRAS-G12D, EML4-ALK) in the tumors ([4]; 25 mg/kg/day, qPCR, normalized to cells prior to injection) | enrichment of KRAS-G12D cells [5] |
| --- | --- | --- | --- | --- | --- | --- |
| COc1cccc2c1C(=O)c1c(O)c3c(c(O)c1C2=O)C[C@@](O)(C(=O)CO)C[C@@H]3O[C@H]1C[C@H](N)[C@H](O)[C@H](C)O1 [doxorubicin] | did not affect | did not affect |  |  |  |  |
| COc1cc2ncnc(Nc3ccc(F)c(Cl)c3)c2cc1OCCCN1CCOCC1 [gefitinib] |  |  | induced an enrichment | initially arrested upon gefitinib treatment, but it eventually resumed after a few weeks | strongly increased | significant enrichment |
| COc1ccc(C2=N[C@@H](c3ccc(Cl)cc3)[C@@H](c3ccc(Cl)cc3)N2C(=O)N2CCNC(=O)C2)c(OC(C)C)c1 (racemic) [Nutlin 3] | significantly increased | significantly increased |  |  |  |  |
